# Measurements: patent US20080221205A1, “FURAN DERIVATIVES FOR PREVENTING AND CURING OSTEOPOROSIS AND PHARMACEUTICAL COMPOSITIONS CONTAINING THE SAME” (priority 2002, published 2008)
# Columns and labels:
# [1] = system: MG-63 osteoblasts; assay: Proliferation of MG-63 osteoblasts (3H-thymidine incorporation); assay type: cell-based, human; conditions: concentration not given
# Description: (§1) In the following tests, three kinds of cell lines were used. The human osteosarcoma cell lines, MG-63 (ATCC No. CRL-1427) and HOS (ATCC No. CRL-1543), and mouse muscle C2C12 muscle cells (ATCC No. CRL-1772) were purchased from ATCC (American Type Culture Collection, Rockville, USA), and cultured in Dulbecco's modified Eagle's medium (DMEM) supplemented with 10% fetal bovine serum (FBS).
# In order to indirectly evaluate cytotoxicity of the Compound 1 and investigate effect of the Compound 1 naturally extracted on obsteoblast proliferation, proliferation of MG-63 osteoblasts was investigated by measuring the amount of ^3H-thymidine incorporated into cellular DNA upon DNA replication. The cells were aliquotted onto 24-well plates at a density of 2×10^4 cells per well. The next day, after exchanging culture medium to medium containing 1% FBS, the cells were treated with the compound 1 serially diluted at various concentrations and further cultured for 48 hrs. Four hours before finishing the culture of 48 hrs, ^3H-thymidine was added to the medium in an amount of 3 μCi per well. The cells were washed with phosphate buffer, and treated with 5% trichloroacetic acid (TCA) pre-cooled on ice. Each of the separated TCA-insoluble fractions was dissolved in 0.1 M NaOH. With a portion of each fraction, ^3H-thymidine uptake by the cells was measured using a liquid scintillation counter.
# [2] = system: Runx2; assay: Runx2 expression, p6xOSE2-Luc luciferase assay in C2C12 cells; assay type: cell-based, mouse; conditions: concentration not given
# Method: as §1
# Primarily, transient transfection was carried out using a p6xOSE2-Luc vector, which was prepared by inserting into a pGL3 promoter vector six tandem copies of the OSE2 motif, the binding site of the transcriptional factor Runx2 that is a critical regulator for osteoblast differentiation. Runx2 expression levels were determined by luciferase assay. The test procedure will be described in more detail, as follows.
# C2C12 cells were plated onto 6-well plates at a density of 1 (10^5 cells per well, and cultured for 24 hrs in a 5% CO2 incubator.
# Then, the cells transiently transfected with the p6xOSE2-Luc vector using a transfection reagent, LipofectAmine, as follows. The plasmid DNA was reacted with the transfection reagent for 15 min to form p6xOSE2-Luc DNA:lipofectamine complexes. During this reaction, culture medium was removed from each well of the plates, the cells were washed with FBS-free DMEM, and 800 μl of FBS-free DMEM was added to each well. […]
# [3] = system: osteoprotegerin (OPG); assay: Osteoprotegerin (OPG) expression in MG63 cells, OPG ELISA; assay type: cell-based, human; conditions: concentration not given
# Method: as §1
# When MG63 cells grew confluently on 96-well plates, […] of FBS-free DMEM containing various concentrations of the Compound 1 was added to each well. After incubation for 16 hrs, the culture supernatants were collected. The amount of OPG released into the medium was determined using an OPG ELISA kit.
# [4] = system: osteoclasts; assay: Resorption activity of osteoclasts on calcium phosphate-coated plates (resorption pit area); assay type: cell-based, mice; conditions: concentration not given
# Method: In order to investigate the effects of the Compound 1 on differentiation and activity of osteoclasts, when differentiation of osteoclast progenitors was induced, the activity of Tartrate-resistant acid phosphatase (TRAP) as an osteoclastic marker enzyme was investigated, and, when differentiated osteoclasts were cultured on calcium phosphate-coated plates (OAAS, OCT Inc.), resorption activity (formation of resorption pits) were measured.
# First, bone marrow cells were isolated, as follow. After sacrificing 7-9 week female mice by cervical dislocation, femur and tibia were excised aseptically while removing attached soft tissues. After cutting both ends of long bones, 1 ml of an enzyme solution, containing 0.1% collagenase (Gibco), 0.05% trypsin and 0.5 mM EDTA (Gibco), was injected to the bone marrow cavity at one end using a syringe with a 26-guage needle, and bone marrow was then collected. After shaking the recovered bone marrow for 30 min, bone marrow cells were collected, and cultured in α-minimum essential medium (α-MEM) supplemented with 10% FBS for 24 hrs. […]
# The differentiated osteoclasts were cultured on calcium phosphate-coated plates (OAASTM, OCT, Korea) in order to evaluate resorption activity of the cells. […] After washing again with distilled water and drying the plates, the area of formed resorption pits was calculated by means of an Image Pro Plus software. […]
# [5] = system: ovariectomized white mice; assay: Bone mineral densitometer test, therapeutic effect on osteoporosis; assay type: in vivo; conditions: test group
# Method: After ovariectomy, female white mice weighing about 250 g were bred for four weeks. After checking the onset of osteoporosis in the mice, each of the mice was orally administered with 220 μl of the Compound 1 dissolved in 30 ml water for four weeks.
# BMD measurement was performed before ovariectomy and every week for eight weeks after ovariectomy, using a bone mineral densitometer, XCT 540 Research SA made in Germany.
# After anesthetizing the mice being bred in cages by intraperitoneal injection of a mixture of Ketamine HCl (ketara 10 mg/kg) and 2% xylazine HCl (Roupun 0.15 ml/kg), BMD measurement was made at a voxel size of 0.1×0.1 mm^2 and threshold values of 280 mg/cm^2 for cancellous bone and 500 mg/cm^2 for compact bone. The analysis sites at the proximal tibias were determined by Scout scans (10 mm/sec), and BMD was measured at three slices at the determined sites by CT scans (7 mm/sec). BMD measurement was performed twice or more at the same site every week during eight weeks after ovariectomy.
# [6] = listed as compound prepared in Example 1
compound,measurement,setting,value
"O=Cc1ccc(CO)o1 [Compound 1, 5-hydroxymethylfuran-2-carboxyaldehyde]",Proliferation rate of osteoblasts compared to control,[1],over 105%
same,Proliferation rate of osteoblasts compared to control,[1]; [6],≥ 105%
same,Activity of Runx2 (in words),[2],increase the activity of Runx2
same,Expression of osteoprotegerin (OPG) in osteoblasts (in words),[3],increases the expression of osteoprotegerin (OPG)
same,Area of resorption pits compared to control,[4],about 50%
same,Area of resorption pits compared to control,[4]; [6],inhibit bone resorption activity of osteoclasts
same,"Change in BMD, %","[5]; Week 1 after ovariectomy (before administration), control −3",−2.9%
same,"Change in BMD, %","[5]; Week 3 after ovariectomy (before administration), control −15",−14%
same,"Change in BMD, %","[5]; Week 4 after ovariectomy (start of oral 220 μl administration), control −19",−17%
same,"Change in BMD, %","[5]; Week 7 after ovariectomy, oral 220 μl from week 4, control −25.9",−19%
